Read-outs that look alike come from different tables or passages of the source.
Experiments:
[1] = tested on: HCV replicon in HUH-7 cells; test: HCV replicon FRET assay; assay type: cell-based, HCV strain 1b; details: Hepatitis C virus
Text: An HCV replicon whole cell system was established as described by Lohmann V, Korner F, Koch J, Herian U, Theilmann L, Bartenschlager R., Science 285(5424):110-3 (1999). This system enabled us to evaluate the effects of our HCV Protease compounds on HCV RNA replication. Briefly, using the HCV strain 1b sequence described in the Lohmann paper (Assession number: AJ238799), an HCV cDNA was synthesized by Operon Technologies, Inc. (Alameda, Calif.), and the full-length replicon was then assembled in plasmid pGem9zf(+) (Promega, Madison, Wis.) using standard molecular biology techniques. The replicon consists of (i) the HCV 5′ UTR fused to the first 12 amino acids of the capsid protein, (ii) the neomycin phosphotransferase gene (neo), (iii) the IRES from encephalomyocarditis virus (EMCV), and (iv) HCV NS3 to NS5B genes and the HCV 3′ UTR. Plasmid DNAs were linearized with ScaI and RNA transcripts were synthesized in vitro using the T7 MegaScript transcription kit (Ambion, Austin, Tex.) according to manufacturer's directions. In vitro transcripts of the cDNA were transfected into the human hepatoma cell line, HUH-7. […] Resulting cell lines were characterized for positive and negative strand RNA production and protein production over time.
The HCV replicon FRET assay was developed to monitor the inhibitory effects of compounds described in the disclosure on HCV viral replication. HUH-7 cells, constitutively expressing the HCV replicon, were grown in Dulbecco's Modified Eagle Media (DMEM) (Gibco-BRL) containing 10% Fetal calf serum (FCS) (Sigma) and 1 mg/ml G418 (Gibco-BRL). Cells were seeded the night before (1.5×10^4 cells/well) in 96-well tissue-culture sterile plates. Compound and no compound controls were prepared in DMEM containing 4% FCS, 1:100 Penicillin/Streptomysin (Gibco-BRL), 1:100 L-glutamine and 5% DMSO in the dilution plate (0.5% DMSO final concentration in the assay). Compound/DMSO mixes were added to the cells and incubated for 4 days at 37° C. After 4 days, cells were first assessed for cytotoxicity using alamar Blue (Trek Diagnotstic Systems) for a CC50 reading. The toxicity of compound (CC50) was determined by adding 1/10th volume of alamar Blue to the media incubating the cells. After 4 hours, the fluorescence signal from each well was read, with an excitation wavelength at 530 nm and an emission wavelength of 580 nm, using the Cytofluor Series 4000 (Perspective Biosystems). Plates were then rinsed thoroughly with Phosphate-Buffered Saline (PBS) (3 times 150 μl). The cells were lysed with 25 μl of a lysis assay reagent containing an HCV protease substrate (5× cell Luciferase cell culture lysis reagent (Promega #E153A) diluted to 1× with distilled water, NaCl added to 150 mM final, the FRET peptide substrate (as described for the enzyme assay above) diluted to 10 μM final from a 2 mM stock in 100% DMSO. […]. The plate was then placed into the Cytofluor 4000 instrument which had been set to 340 nm excitation/490 nm emission, automatic mode for 21 cycles and the plate read in a kinetic mode. EC50 determinations were carried out as described for the IC50 determinations.

[2] = tested on: human pancreatic chymotrypsin; test: Specificity assay, chymotrypsin (pNA substrate); assay type: biochemical
Description: The specificities of compounds of the present disclosure were determined against a variety of serine proteases: human neutrophil elastase (HNE), porcine pancreatic elastase (PPE) and human pancreatic chymotrypsin and one cysteine protease: human liver cathepsin B. In all cases, a 96-well plate format protocol using colorimetric p-nitroaniline (pNA) substrate or fluorometric Amino-Methyl-Coumarin (AMC) substrate, specific for each enzyme was used as described previously (PCT Patent Application No. WO 00/09543) with some modifications. All enzymes were purchased from Sigma or EMDbiosciences while the substrates were from Bachem.
Each pNA assay included a 2 h enzyme-inhibitor pre-incubation at room temperature followed by addition of substrate and hydrolysis to ˜15% conversion as measured on a Spectramax Pro microplate reader. The cathepsin B assay was initiated by adding substrate to a 10 min enzyme-inhibitor pre-incubation at room temperature, and the assay plate measured immediately using the Cytofluor Series 4000. Compound concentrations varied from 100 to 0.4 μM depending on their potency.
50 mM Tris(hydroxymethyl)aminomethane hydrochloride (Tris-HCl) pH 8, 0.5 M Sodium Sulfate (Na2SO4), 50 mM NaCl, 0.1 mM EDTA, 3% DMSO, 0.01% Tween-20 with: […]
The percentage of inhibition was calculated using the formula: [1−((UVinh−UVblank)/(UVctl−UVblank))]×100 […]

SMILES: COc1c(O[C@@H]2C[C@H]3C(=O)N[C@]4(C(=O)NS(=O)(=O)C5CC5)C[C@H]4/C=C\CCCCC[C@H](NC(=O)OC(C)(C)C)C(=O)N3C2)ccc2c(Cl)nccc12 [Compound 3]
- EC50 ([1]; 96 h, HUH-7 replicon cells, 4 days, read-out: EC50 in the replicon FRET assay): 14.6 nM
- EC50 ([1]; Huh-7, HCV replicon, which replicon assay not stated, read-out: EC50 Activity Range): < 100 nM
- IC50 [2]: > 100000 nM

— patent US20080107623A1, “Inhibitors of Hepatitis C Virus” (Bristol-Myers Squibb Company, priority 2006, published 2008)
